“And” between values parts separate entries of the source, which are not always exact repeats. Equal values may be shown once. Read-outs that look alike come from different tables or passages of the source.
Assays:
[1] = tested on: Indian hedge mustard (Sisymbrium orientale, SSYOR); experiment: Greenhouse postemergence trial, % visual injury; format: in vivo
[2] = tested on: velvetleaf (Abutilon theophrasti, ABUTH); experiment: Greenhouse postemergence trial, % visual injury; format: in vivo
[3] = tested on: maize (ZEAMX); conditions: maize (Zea mays), in vivo
[4] = tested on: spring rape (Brassica napus, BRSNN); experiment: Greenhouse postemergence trial, % visual injury; conditions: for plant injury at 5 g/ha: Brassica napus, post-emergence
[5] = tested on: spring barley (HORVS); conditions: in vivo; for % visual injury (Obs): Hordeum vulgare (spring barley)
[6] = tested on: common lambsquarters (CHEAL, Chenopodium album L.); experiment: Greenhouse postemergence trial, % visual injury; format: in vivo; conditions: for % visual injury, Obs: CHEAL
[7] = tested on: Chinese kale (Brassica alboglabra, BRSAG); experiment: Greenhouse postemergence trial, % visual injury; format: in vivo; conditions: for % visual injury, Obs: BRSAG, compound 1 (EC) 5 g ae/ha
[8] = tested on: Russian thistle (Salsola iberica, SASKR); experiment: Greenhouse postemergence trial, % visual injury; format: in vivo
[9] = tested on: pigweed (AMARE, Amaranthus retroflexus); experiment: Greenhouse postemergence trial, % visual injury; format: in vivo; conditions: for % visual injury, Obs: AMARE
[10] = tested on: nutsedge (Cyperus esculentus, CYPES); experiment: Greenhouse postemergence trial, % visual injury; format: in vivo
[11] = tested on: common rice (ORYSA); conditions: in vivo
[12] = tested on: winter rape (BRSNW, Brassica napus); experiment: Greenhouse postemergence trial, % visual injury; format: in vivo; conditions: for % visual injury, Obs: BRSNW
[13] = tested on: soybean (Glycine max, GIAMA); experiment: Greenhouse postemergence trial, % visual injury; format: in vivo; conditions: GLXMA
[14] = tested on: kochia (KCHSC, Kochia scoparia); experiment: Greenhouse postemergence trial, % visual injury; format: in vivo; conditions: for % visual injury, Obs.: Table 60
Description: Following the protocol in Example 1, compound 1 and compound 2 were combined with 2,4 D EHE (EC) and applied to kochia (KCHSC, Kochia scoparia) and the phytotoxicity of the herbicidal compositions was measured.
Following the protocol in Example 1, compound 1 (EC) and Compound 2 (SC) were combined with diflufenzopyr and applied to kochia (Kochia scoparia, KCHSC) and the phytotoxicity of the herbicidal composition was measured.

[15] = tested on: wild buckwheat (Polygonum convolvulus, POLCO); experiment: Greenhouse postemergence trial, % visual injury; format: in vivo; conditions: for % visual injury, Obs: POLCO
[16] = tested on: grain sorghum (Sorghum vulgare, SORVU); experiment: Greenhouse postemergence trial, % visual injury; format: in vivo
[17] = tested on: ivyleaf morningglory (Ipomoea hederacea, IPOHE); experiment: Greenhouse postemergence trial, % visual injury
[18] = tested on: wild pansy (Viola tricolor, VIOTR); experiment: Greenhouse postemergence trial, % visual injury; conditions: for % visual injury, Obs: VIOTR
[19] = tested on: Canadian thistle (CIRAR, Cirsium arvense); experiment: Greenhouse postemergence trial, % visual injury; conditions: for % visual injury, Obs: CIRAR; for pest or weed control at 5 g/ha: Cirsium arvense, post-emergence;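 for all read-outs here: plants sprayed at second to third true leaf stage, injury scored visually 20-22 d later against solvent-blank sprayed controls, 0 meaning no injury and 100 complete kill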
[20] = tested on: poinsettia (Euphorbia heterophylla, EPHHL); experiment: Greenhouse postemergence trial, % visual injury
[21] = tested on: sunflower (Helianthus annus, HELAN); experiment: Greenhouse postemergence trial, % visual injury; format: in vivo; conditions: for % visual injury, Obs: HELAN
[22] = tested on: wild mustard (Sinapis arvensis, SINAR); experiment: Greenhouse postemergence trial, % visual injury; format: in vivo
[23] = tested on: large crabgrass (Digitaria sanguinalis, DIGSA); experiment: Greenhouse postemergence trial, % visual injury; format: in vivo; conditions: Digitaria sanguinalis, post-emergence; DIGSA, 5 g ae/ha; read-out: % visual injury, Obs
[24] = tested on: common chickweed (Stellaria media, STEME); experiment: Greenhouse postemergence trial, % visual injury; format: in vivo; conditions: for % visual injury, Obs: STEME
[25] = read-out: % visual injury (Obs)
[26] = compound 1 (EC) 5 g ae/ha, Table 62
[27] = compound 1 (EC) 5 g ae/ha, Table 63

Nc1c(F)c(-c2ccc3cc[nH]c3c2F)nc(C(=O)O)c1Cl [compound 1]
% visual injury (Obs) ([1]; compound 1 SC 2.5 g ae/ha): 13% | % visual injury (Obs) ([1]; compound 1 SC 5 g ae/ha): 20% | pest or weed control at 5 g/ha ([2]; Abutilon theophrasti, post-emergence, ABUTH, 5 g ae/ha, read-out: % visual injury, Obs): 70% | pest or weed control at 10 g/ha ([2]; Abutilon theophrasti, post-emergence, ABUTH, 10 g ae/ha, read-out: % visual injury, Obs): 60% | pest or weed control at 5 g/ha ([2]; Abutilon theophrasti, post-emergence, ABUTH, compound 1 (EC) 5 g ae/ha, Table 62, read-out: % visual injury, Obs): 60% | pest or weed control at 5 g/ha ([2]; Abutilon theophrasti, post-emergence, ABUTH, compound 1 (EC) 5 g ae/ha, Table 63, read-out: % visual injury, Obs): 60% | % visual injury (Obs) ([2]; compound 1 (EC) 5 g ae/ha): 70% | % visual injury (Obs) [3]: 5% | % visual injury, Obs ([4]; BRSNN, compound 1 (EC) 5 g ae/ha, Table 62): 50% | plant injury at 5 g/ha [4, 25]: 50% | plant injury at 5 g/ha ([4]; read-out: % visual injury Obs): 60% | plant injury at 5 g/ha ([4]; read-out: % visual injury, Obs): 50% | % visual injury (Obs) [5]: 0% | % visual injury (Obs) ([5]; sc): 0% | % visual injury, Obs ([5]; spring barley (Hordeum vulgare)): 0% | % visual injury, Obs ([6]; 5 g ae/ha): 90% | % visual injury, Obs ([6]; 10 g ae/ha): 100% | % visual injury (Obs) ([6]; compound 1 (EC) 5 g ae/ha): 80% | % visual injury Obs ([7]; 5 g ae/ha alone (compound 1 as EC), 20-22 d): 15% | % visual injury, Obs ([7]; Table 62): 15% | % visual injury, Obs ([7]; Table 63): 15% | % visual injury (Obs) ([8]; compound 1 (EC) 10 g ae/ha): 65% and 60% | % visual injury (Obs) ([8]; compound 1 SC 5 g ae/ha): 65% | % visual injury (Obs) ([8]; compound 1 SC 10 g ae/ha): 80% | % visual injury, Obs ([9]; 5 g ae/ha): 75% | % visual injury, Obs ([9]; 10 g ae/ha): 97% | % visual injury (Obs) ([9]; compound 1 (EC) 5 g ae/ha): 70% | % visual injury (Obs) ([9]; compound 1 (EC) 10 g ae/ha): 85% | % visual injury (Obs) ([9]; compound 1 SC 5 g ae/ha): 70% | % visual injury (Obs) ([9]; compound 1 SC 10 g ae/ha): 85% | % visual injury, Obs ([10]; CYPES, 5 g ae/ha): 30% | pest or weed control at 5 g/ha ([10]; Cyperus, post-emergence, 5 g ae/ha alone, 20-22 d, read-out: % visual injury Obs): 25% | % visual injury (Obs) ([10]; compound 1 (EC) 5 g ae/ha): 30% | % visual injury (Obs) [11]: 0% | % visual injury, Obs ([12]; 5 g ae/ha): 40% | % visual injury, Obs ([12]; 10 g ae/ha): 45% | % visual injury, Obs [12, 26]: 30% | % visual injury, Obs [12, 27]: 50% | % visual injury (Obs) ([12]; compound 1 (EC) 5 g ae/ha): 40% and 70% | % visual injury (Obs) ([12]; compound 1 (EC) 10 g ae/ha): 100% and 80% | % visual injury (Obs) ([12]; compound 1 SC 5 g ae/ha): 30% | % visual injury (Obs) ([12]; compound 1 SC 10 g ae/ha): 60% | % visual injury, Obs ([13]; 5 g ae/ha): 95% | % visual injury, Obs ([13]; 10 g ae/ha): 100% | % visual injury Obs ([14]; 8.75 g ae/ha alone, 20-22 d): 43% | pest or weed control at 5 g/ha ([14]; Bassia scoparia, post-emergence, KCHSC, 5 g ae/ha, read-out: % visual injury, Obs): 65% | pest or weed control at 10 g/ha ([14]; Bassia scoparia, post-emergence, KCHSC, 10 g ae/ha, read-out: % visual injury, Obs): 60% | % visual injury, Obs. ([14]; KCHSC, compound 1 (EC) 8.75 g ae/ha): 78% | % visual injury, Obs. ([14]; KCHSC, compound 1 (EC) 17.5 g ae/ha): 80% | % visual injury (Obs) ([14]; compound 1 (EC) 5 g ae/ha): 65% | % visual injury (Obs) ([14]; compound 1 SC 5 g ae/ha): 75% | % visual injury (Obs) ([14]; compound 1 SC 10 g ae/ha): 100% | % visual injury, Obs ([15]; 10 g ae/ha): 30% | % visual injury, Obs [15, 26]: 65% | % visual injury, Obs [15, 27]: 65% | % visual injury (Obs) ([15]; compound 1 SC 10 g ae/ha): 30% and 40% | % visual injury Obs ([16]; 5 g ae/ha alone, 20-22 d): 13% | % visual injury, Obs ([16]; SORVU, 10 g ae/ha): 50% | % visual injury (Obs) ([16]; compound 1 (EC) 5 g ae/ha): 30% | pest or weed control at 5 g/ha ([17]; Ipomoea, post-emergence, read-out: % visual injury, Obs, IPOHE, 5 g ae/ha): 20% | pest or weed control at 10 g/ha ([17]; Ipomoea, post-emergence, read-out: % visual injury, Obs, IPOHE, 10 g ae/ha): 10% | % visual injury (Obs) ([17]; compound 1 (EC) 5 g ae/ha): 20% | % visual injury, Obs ([18]; 10 g ae/ha): 10% | % visual injury, Obs [18, 26]: 5% | % visual injury, Obs [18, 27]: 5% | pest or weed control at 5 g/ha ([18]; Viola tricolor, post-emergence, read-out: % visual injury Obs): 25% | % visual injury (Obs) ([18]; compound 1 (EC) 5 g ae/ha): 10% | % visual injury (Obs) ([18]; compound 1 SC 2.5 g ae/ha): 13% | % visual injury (Obs) ([18]; compound 1 SC 5 g ae/ha): 23% | % visual injury, Obs ([19]; 5 g ae/ha): 10% | % visual injury, Obs [19, 27]: 10% | pest or weed control at 5 g/ha [19, 25]: 10% | pest or weed control at 5 g/ha ([19]; read-out: % visual injury Obs): 20% | % visual injury (Obs) ([19]; compound 1 (EC) 5 g ae/ha): 10% | pest or weed control at 5 g/ha ([20]; Euphorbia heterophylla, post-emergence, read-out: % visual injury, Obs, EPHHL, 5 g ae/ha): 95% | pest or weed control at 10 g/ha ([20]; Euphorbia heterophylla, post-emergence, read-out: % visual injury, Obs, EPHHL, 10 g ae/ha): 97% | % visual injury (Obs) ([20]; compound 1 (EC) 5 g ae/ha): 95% | % visual injury, Obs ([21]; 5 g ae/ha): 80% | % visual injury, Obs [21, 26]: 70% | % visual injury, Obs [21, 27]: 70% | % visual injury (Obs) ([21]; compound 1 (EC) 5 g ae/ha): 80% | % visual injury (Obs) ([22]; compound 1 (EC) 5 g ae/ha): 100% and 95% | % visual injury (Obs) ([22]; compound 1 (EC) 10 g ae/ha): 100% | % visual injury (Obs) ([22]; compound 1 SC 5 g ae/ha): 100% | % visual injury (Obs) ([22]; compound 1 SC 10 g ae/ha): 80% | pest or weed control at 5 g/ha [23]: 0% | % visual injury, Obs ([24]; 5 g ae/ha): 60% and 70% | % visual injury, Obs ([24]; 10 g ae/ha): 70% | % visual injury (Obs) ([24]; compound 1 (EC) 5 g ae/ha): 60%

Reference: patent US9521847B2, “Synergistic weed control from applications of pyridine carboxylic acid herbicides and synthetic auxin herbicides and/or auxin transport inhibitors” (Dow AgroSciences LLC, priority 2014, dated 2016)
